According to patent US11109593B2, “Isoxazolin-5-one derivative and herbicide containing same as active ingredient” (HOKKO CHEMICAL INDUSTRY CO., LTD., priority 2017, dated 2021):

system: Scirpus juncoides; experiment: Test Example 1: herbicidal effect test by treatment of rice paddy soil (immediately after seeding); format: in vivo; settings: 120 g/10a active ingredient, dry weight vs untreated area, 14 days after treatment
Method: (§1) Herbicidal Effect Test by Treatment of Rice Paddy Soil
(§2) Wagner pots with an area of 1/10000 ares were filled with a paddy soil, and after adding water, a compound fertilizer (N:P:K=17:17:17) was added, followed by soil puddling. Then, Echinochloa crus-galli, broad leaf weeds (Lindernia pyxidaria and Monochoria vaginalis) and Scirpus juncoides, 30 seeds each, were sown in a depth of 0 to 1 cm. Water was poured immediately after seeding, and the water depth was kept at about 3 cm. The subsequent management was conducted in a glass greenhouse. Immediately after that, emulsions prepared using the compounds in Table 3 below according to Formulation Example 5 were diluted with water, and a certain amount of the water-diluted agent solutions were dropped. The converted amount of the applied active ingredient corresponded to 120 g per 10 ares.
(§3) This test was conducted in a double system per one agent solution concentration area, and the herbicidal rates (%) were determined by the following equation (Math. 1) on 14 days after the treatment with the agents. Herbicidal Rate (%)={1-(Average Dry Weight (g) of Plant of Treated Area)/(Average Dry Weight (g) of Plant of Untreated Area)}×100 [Math. 1]
(§4) The compound numbers in Table 3 are the same as those in Table 1 and Table 2 above.

Row | Compound | Herbicidal rate (%) Scirpus juncoides [%]
1 | Cc1c(Cc2ccccc2NS(=O)(=O)C(F)(F)F)c(=O)on1Cc1ccc(C#N)cc1 [Compound 1-189] | 90
2 | Cc1ccc(Cn2oc(=O)c(Cc3ccccc3N(S(=O)(=O)C(F)(F)F)S(=O)(=O)C(F)(F)F)c2C)cc1 [Compound 1-1018] | 90
3 | Cc1c(Cc2ccccc2N(S(=O)(=O)C(F)(F)F)S(=O)(=O)C(F)(F)F)c(=O)on1C(C)c1ccc(Cl)cc1 (stereo not shown) [Compound 1-1034] | 90
4 | Cc1c(Cc2ccccc2N(S(=O)(=O)C(F)(F)F)S(=O)(=O)C(F)(F)F)c(=O)on1Cc1ccc(C#N)cc1 [Compound 1-1017] | 90
5 | Cc1c(Cc2ccccc2NS(=O)(=O)C(F)(F)F)c(=O)on1Cc1ccsc1 [Compound 1-232] | 90

system: Echinochloa crus-galli; experiment: as above; format: in vivo; settings: 120 g/10a active ingredient, dry weight vs untreated area, 14 days after treatment
Method: as §1, §2, §3, §4

Row | Compound | Herbicidal rate (%) Echinochloa crus-galli [%]
6 | Cc1c(Cc2ccccc2NS(=O)(=O)C(F)(F)F)c(=O)on1Cc1ccc(C#N)cc1 [Compound 1-189] | 90
7 | Cc1ccc(Cn2oc(=O)c(Cc3ccccc3N(S(=O)(=O)C(F)(F)F)S(=O)(=O)C(F)(F)F)c2C)cc1 [Compound 1-1018] | 90
8 | Cc1c(Cc2ccccc2N(S(=O)(=O)C(F)(F)F)S(=O)(=O)C(F)(F)F)c(=O)on1C(C)c1ccc(Cl)cc1 (stereo not shown) [Compound 1-1034] | 100
9 | Cc1c(Cc2ccccc2N(S(=O)(=O)C(F)(F)F)S(=O)(=O)C(F)(F)F)c(=O)on1Cc1ccc(C#N)cc1 [Compound 1-1017] | 40
10 | Cc1c(Cc2ccccc2NS(=O)(=O)C(F)(F)F)c(=O)on1Cc1ccsc1 [Compound 1-232] | 90

system: broad leaf weeds (Lindernia pyxidaria and Monochoria vaginalis); experiment: as above; format: in vivo; settings: Lindernia pyxidaria, 120 g/10a active ingredient, dry weight vs untreated area, 14 days after treatment
Method: as §1, §2, §3, §4

Row | Compound | Herbicidal rate (%) Lindernia pyxidaria [%]
11 | Cc1c(Cc2ccccc2NS(=O)(=O)C(F)(F)F)c(=O)on1Cc1ccc(C#N)cc1 [Compound 1-189] | 100
12 | Cc1ccc(Cn2oc(=O)c(Cc3ccccc3N(S(=O)(=O)C(F)(F)F)S(=O)(=O)C(F)(F)F)c2C)cc1 [Compound 1-1018] | 100
13 | Cc1c(Cc2ccccc2N(S(=O)(=O)C(F)(F)F)S(=O)(=O)C(F)(F)F)c(=O)on1C(C)c1ccc(Cl)cc1 (stereo not shown) [Compound 1-1034] | 100
14 | Cc1c(Cc2ccccc2N(S(=O)(=O)C(F)(F)F)S(=O)(=O)C(F)(F)F)c(=O)on1Cc1ccc(C#N)cc1 [Compound 1-1017] | 60
15 | Cc1c(Cc2ccccc2NS(=O)(=O)C(F)(F)F)c(=O)on1Cc1ccsc1 [Compound 1-232] | 80

same assay, conditions: Monochoria vaginalis, 120 g/10a active ingredient, dry weight vs untreated area, 14 days after treatment

Row | Compound | Herbicidal rate (%) Monochoria vaginalis [%]
16 | Cc1c(Cc2ccccc2NS(=O)(=O)C(F)(F)F)c(=O)on1Cc1ccc(C#N)cc1 [Compound 1-189] | 90
17 | Cc1ccc(Cn2oc(=O)c(Cc3ccccc3N(S(=O)(=O)C(F)(F)F)S(=O)(=O)C(F)(F)F)c2C)cc1 [Compound 1-1018] | 90
18 | Cc1c(Cc2ccccc2N(S(=O)(=O)C(F)(F)F)S(=O)(=O)C(F)(F)F)c(=O)on1C(C)c1ccc(Cl)cc1 (stereo not shown) [Compound 1-1034] | 100
19 | Cc1c(Cc2ccccc2N(S(=O)(=O)C(F)(F)F)S(=O)(=O)C(F)(F)F)c(=O)on1Cc1ccc(C#N)cc1 [Compound 1-1017] | 90
20 | Cc1c(Cc2ccccc2NS(=O)(=O)C(F)(F)F)c(=O)on1Cc1ccsc1 [Compound 1-232] | 90

system: Scirpus juncoides; experiment: Test Example 2: herbicidal effect test by treatment during growing period in paddy rice cultivation (seven days after seeding); format: in vivo; settings: 120 g/10a active ingredient, assessed 14 days after treatment, dry weight vs untreated area
Method: as §3
(§5) Herbicidal Effect Test by Treatment During Growing Period in Paddy Rice Cultivation
as §2, with “was mixed,” for “was added,”, “greenhouse. Emulsions” for “greenhouse. Immediately after that, emulsions”, “Table 4” for “Table 3”, “with water seven days after seeding,” for “with water,”, “ares. The test was conducted in a double system per one agent solution concentration area, and the herbicidal rates (%) were determined by the equation (Math. 1) on 14 days after the treatment with the agents. […] The compound numbers in Table 4 are the same as those in Table 1 and Table 2 above.” for “ares.”

Row | Compound | Herbicidal rate (%) Scirpus juncoides [%]
21 | Cc1c(Cc2ccccc2NS(=O)(=O)C(F)(F)F)c(=O)on1Cc1ccc(C#N)cc1 [Compound 1-189] | 80
22 | Cc1ccc(Cn2oc(=O)c(Cc3ccccc3N(S(=O)(=O)C(F)(F)F)S(=O)(=O)C(F)(F)F)c2C)cc1 [Compound 1-1018] | 80
23 | Cc1c(Cc2ccccc2N(S(=O)(=O)C(F)(F)F)S(=O)(=O)C(F)(F)F)c(=O)on1C(C)c1ccc(Cl)cc1 (stereo not shown) [Compound 1-1034] | 90
24 | Cc1c(Cc2ccccc2N(S(=O)(=O)C(F)(F)F)S(=O)(=O)C(F)(F)F)c(=O)on1Cc1ccc(C#N)cc1 [Compound 1-1017] | 80
25 | Cc1c(Cc2ccccc2NS(=O)(=O)C(F)(F)F)c(=O)on1Cc1ccsc1 [Compound 1-232] | 60

system: Echinochloa crus-galli; experiment: as above; format: in vivo; settings: 120 g/10a active ingredient, assessed 14 days after treatment, dry weight vs untreated area
Method: as §3, §5
as §2, with “was mixed,” for “was added,”, “greenhouse. Emulsions” for “greenhouse. Immediately after that, emulsions”, “Table 4” for “Table 3”, “with water seven days after seeding,” for “with water,”, “ares. The test was conducted in a double system per one agent solution concentration area, and the herbicidal rates (%) were determined by the equation (Math. 1) on 14 days after the treatment with the agents. […] The compound numbers in Table 4 are the same as those in Table 1 and Table 2 above.” for “ares.”

Row | Compound | Herbicidal rate (%) Echinochloa crus-galli [%]
26 | Cc1c(Cc2ccccc2NS(=O)(=O)C(F)(F)F)c(=O)on1Cc1ccc(C#N)cc1 [Compound 1-189] | 60
27 | Cc1ccc(Cn2oc(=O)c(Cc3ccccc3N(S(=O)(=O)C(F)(F)F)S(=O)(=O)C(F)(F)F)c2C)cc1 [Compound 1-1018] | 40
28 | Cc1c(Cc2ccccc2N(S(=O)(=O)C(F)(F)F)S(=O)(=O)C(F)(F)F)c(=O)on1C(C)c1ccc(Cl)cc1 (stereo not shown) [Compound 1-1034] | 90
29 | Cc1c(Cc2ccccc2N(S(=O)(=O)C(F)(F)F)S(=O)(=O)C(F)(F)F)c(=O)on1Cc1ccc(C#N)cc1 [Compound 1-1017] | 0
30 | Cc1c(Cc2ccccc2NS(=O)(=O)C(F)(F)F)c(=O)on1Cc1ccsc1 [Compound 1-232] | 70

system: broad leaf weeds (Lindernia pyxidaria and Monochoria vaginalis); experiment: as above; format: in vivo; settings: Lindernia pyxidaria, 120 g/10a active ingredient, assessed 14 days after treatment, dry weight vs untreated area
Method: as §3, §5
as §2, with “was mixed,” for “was added,”, “greenhouse. Emulsions” for “greenhouse. Immediately after that, emulsions”, “Table 4” for “Table 3”, “with water seven days after seeding,” for “with water,”, “ares. The test was conducted in a double system per one agent solution concentration area, and the herbicidal rates (%) were determined by the equation (Math. 1) on 14 days after the treatment with the agents. […] The compound numbers in Table 4 are the same as those in Table 1 and Table 2 above.” for “ares.”

Row | Compound | Herbicidal rate (%) Lindernia pyxidaria [%]
31 | Cc1c(Cc2ccccc2NS(=O)(=O)C(F)(F)F)c(=O)on1Cc1ccc(C#N)cc1 [Compound 1-189] | 80
32 | Cc1ccc(Cn2oc(=O)c(Cc3ccccc3N(S(=O)(=O)C(F)(F)F)S(=O)(=O)C(F)(F)F)c2C)cc1 [Compound 1-1018] | 80
33 | Cc1c(Cc2ccccc2N(S(=O)(=O)C(F)(F)F)S(=O)(=O)C(F)(F)F)c(=O)on1C(C)c1ccc(Cl)cc1 (stereo not shown) [Compound 1-1034] | 80
34 | Cc1c(Cc2ccccc2N(S(=O)(=O)C(F)(F)F)S(=O)(=O)C(F)(F)F)c(=O)on1Cc1ccc(C#N)cc1 [Compound 1-1017] | 80
35 | Cc1c(Cc2ccccc2NS(=O)(=O)C(F)(F)F)c(=O)on1Cc1ccsc1 [Compound 1-232] | 40

same assay, conditions: Monochoria vaginalis, 120 g/10a active ingredient, assessed 14 days after treatment, dry weight vs untreated area

Row | Compound | Herbicidal rate (%) Monochoria vaginalis [%]
36 | Cc1c(Cc2ccccc2NS(=O)(=O)C(F)(F)F)c(=O)on1Cc1ccc(C#N)cc1 [Compound 1-189] | 80
37 | Cc1ccc(Cn2oc(=O)c(Cc3ccccc3N(S(=O)(=O)C(F)(F)F)S(=O)(=O)C(F)(F)F)c2C)cc1 [Compound 1-1018] | 80
38 | Cc1c(Cc2ccccc2N(S(=O)(=O)C(F)(F)F)S(=O)(=O)C(F)(F)F)c(=O)on1C(C)c1ccc(Cl)cc1 (stereo not shown) [Compound 1-1034] | 80
39 | Cc1c(Cc2ccccc2N(S(=O)(=O)C(F)(F)F)S(=O)(=O)C(F)(F)F)c(=O)on1Cc1ccc(C#N)cc1 [Compound 1-1017] | 80
40 | Cc1c(Cc2ccccc2NS(=O)(=O)C(F)(F)F)c(=O)on1Cc1ccsc1 [Compound 1-232] | 40
